Reference: the METLIN SMRT retention time set (Domingo-Almenara et al. 2019)

Experiment: gradient 5% acetonitrile 3 min, to 50% in 2 min, to 85% in 15 min, held 3 min, 100 µL/min
Settings: column: Zorbax Extend-C18 2.1 x 50 mm; eluents: water / acetonitrile, 0.1% formic acid
Procedure, shortened: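 Retention times of pure standards were taken from adduct peaks that were selected by computer and manually inspected. Over 3 months, mixtures of ~100 molecules were run by HPLC–quadrupole time-of-flight mass spectrometry in positive and negative ionization mode. The Zorbax Extend-C18 column (2.1 × 50 mm, 1.8 μm) ran at 100 μL/min in water and acetonitrile, each containing 0.1% formic acid, with 40 μL dead volume and 900 μL dwell volume.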

Compound | RP-LC retention time
CCc1ccc(-c2csc(NC(=O)c3cccnc3)n2)cc1 | 924 s
CCNc1nc(NC(C)(C)C)nc(-n2cnc(SC)n2)n1 | 873 s
CCCNC(=O)c1ccc(-c2csc(C)n2)cc1 | 754 s
COC(=O)c1c(C)[nH]c(C(=O)N2CCC(CC(=O)N(C)Cc3ccco3)CC2)c1C | 728 s
O=C(Nc1ccc2c(c1)N(C(=O)c1cccs1)CC2)c1c(F)cccc1Cl | 857 s
CN(CCc1noc(-c2ccc(F)cc2)n1)C(=O)Nc1ccc(F)cc1 | 864 s
CSc1ccc(-c2noc(Cn3c(=O)n(-c4ccccc4)c(=O)c4sccc43)n2)cc1 | 1020 s
CS(=O)(=O)NC1CCN(C(=O)C2CCCC2)C1 (stereo unspecified) | 691 s
CCOC(=O)c1c(C)[nH]c(CCC(=O)NCCOC)c1C | 668 s
COc1cc2c(cc1OC)C(C(=O)NCCCN1CCN(C)CC1)C(c1cccs1)N(C)C2=O (stereo unspecified) | 572 s
COc1ccc(-c2nnc(-c3ccc(C)c(S(N)(=O)=O)c3)o2)cc1OC | 731 s
O=C(NC1CCN(Cc2ccccc2)CC1)c1cc2n(n1)CCCN(Cc1ccc(F)cc1)C2=O | 658 s
Cn1cc(CCN2CCN(C(=O)c3ccccc3Br)CC2)c2cccnc21 | 598 s
O=C(NCc1cccs1)c1ccc2c(c1)CC(=O)N2Cc1ccc(F)cc1 | 840 s
CCNc1cc(C)nc(N2CCN(C(=O)c3ccccc3)CC2)n1 | 616 s
Cc1ccc2c(c1)N(S(C)(=O)=O)CCC(C(=O)Nc1ccc(OC(C)C)cc1)O2 (stereo unspecified) | 976 s
CCOc1ccc(NC(=O)NCC(c2cccnc2)c2cn(C)c3ccccc23)cc1 (stereo unspecified) | 703 s
CCOc1ncccc1CNS(=O)(=O)c1cccnc1 | 661 s
COc1ccc(Nc2ncccc2S(N)(=O)=O)cc1OC | 666 s
COc1nc2ccccc2nc1N1CCCC(C(=O)NC2CCCC(C)C2C)C1 (stereo unspecified) | 1160 s
CC(NC(=O)Cc1nnc(-c2ccc3ncccc3c2)o1)c1ccccc1 (stereo unspecified) | 690 s
CCOc1ccc(-c2cc3c(=O)n(Cc4nc(-c5ccccc5OCC)no4)ncn3n2)cc1 | 1180 s
O=C1NC2(CCN(C(=O)NCc3ccccc3)CC2)Nc2c(Cl)cccc21 | 724 s

Compound | RP-LC retention time
Cc1cc(C(=O)N2CCC3(CC2)C(=O)N(C)c2ccccc23)n(C)n1 | 724 s
O=C(NCC1CCOCC1)Nc1ccc(Cl)cc1 | 705 s
COc1cc(CNC(=O)C2CC(=O)N(c3ccc4oc(C)nc4c3)C2)cc(OC)c1 (stereo unspecified) | 687 s
CC(C)N1CCN(C(=O)c2csc(C(=O)NC3CCCC3)n2)CC1 | 590 s
O=C([C@@H]1C[C@H](F)CN1C(=O)c1ccsc1)N1CCCCC1 | 653 s
Cc1cccc(NC(=O)N2CCN(c3cnn4c(C5CC5)nnc4c3)CC2)c1 | 647 s
Cc1ccc(NC(=O)C2CCN(S(=O)(=O)c3cc(C(=O)N(C)C)cs3)CC2)c(C)c1 | 804 s
O=C(NC1CCN(c2cc(-c3cccs3)[nH]n2)C1)c1cc(Cl)ccc1F (stereo unspecified) | 800 s
COc1cc2c(cc1OC)C(COc1ccc(F)cc1)N(C(=O)C(C)(C)C)CC2 (stereo unspecified) | 998 s
Cc1ccc(C(=O)NCc2nc(-c3ccc4c(c3)nnn4C3CCCC3)no2)cc1 | 969 s
CN1C(=O)c2ccccc2Oc2ccc(C(=O)NCc3ccccc3Cl)cc21 | 948 s
CN(C)c1ccc(C(=O)Nc2cnc(N3CCCCC3)nc2)cc1 | 882 s
CC(C)c1noc(C2CCCCN2C(=O)c2cnn3cccnc23)n1 (stereo unspecified) | 755 s
O=C(Cc1csc2nc(-c3cccc(Br)c3)cn12)NCCC1=CCCCC1 | 1050 s
COc1ccc(OCc2nc(-c3cccc(-c4ccn[nH]4)c3)no2)cc1 | 914 s
CCOC(=O)c1cccc(NC2=NS(=O)(=O)C(c3ccc(F)cc3)=C2C)c1 | 927 s
CCOc1ccc(-c2noc(-c3nn(-c4cccc(OC)c4)ccc3=O)n2)cc1 | 938 s
CCOC(=O)C1CCCN(Cc2nc(-c3cc(OC)c(OC)c(OC)c3)no2)C1 (stereo unspecified) | 774 s
COc1cc(-c2noc(-c3nn(-c4ccc(C)c(C)c4)ccc3=O)n2)cc(OC)c1OC | 928 s
COCc1cc2nn(CC(=O)Nc3ccc(F)cc3)c(=O)n2c(-c2ccccc2)n1 | 903 s
Cc1ccc2snc(C(=O)NC(C)C)c2c1 | 986 s
COc1cccc(-c2cn3ccn(-c4ccc(F)c(F)c4)c(=O)c3n2)c1 | 844 s
Cc1noc(C2(NC(=O)c3ccc4c(c3)OCO4)CCCCC2)n1 | 758 s

Compound | RP-LC retention time
Cc1nnc2c(=O)n(CC(=O)NC3CCCCC3)c3cccnc3n12 | 668 s
CCCNC(=O)N1CCC(c2noc(-c3ccncc3)n2)C1 (stereo unspecified) | 642 s
CCC(C)n1[nH]c(=O)c2c1NC(=O)CSC2c1ccc(OC)c(OC)c1 (stereo unspecified) | 654 s
CCC(CC)C(=O)Nc1nc(-c2ccc3c(c2)N(C)C(=O)CO3)cs1 | 929 s
O=C(Cc1cccc(Cl)c1)N1CCc2cc(-c3ccno3)ccc21 | 1020 s
COc1ccccc1NS(=O)(=O)c1c(C)nn(-c2ccc(-c3ccc(C)cc3)nn2)c1C | 1150 s
COc1cccc(C(=O)N2C[C@@H]3C[C@H]2C[C@@H]3NC(=O)c2cccs2)c1OC | 698 s
CC(=O)Nc1ccc(C(=O)NCc2cccs2)c(N2CCCCC2)c1 | 676 s
CCOc1nc(OCC)c2cnn(C)c2n1 | 901 s
CCC(C)NC(=O)Cn1c(=O)c2cnc(-c3ccc(Cl)cc3)nc2n(CC)c1=O (stereo unspecified) | 740 s
O=C1c2c(O)cc(O)cc2OC(c2ccc(O)c(O)c2)C1O (stereo unspecified) | 687 s
COCc1nnc(NS(=O)(=O)c2ccc([N+](=O)[O-])cc2)s1 | 702 s
COc1ccc(C2CC(=O)N(c3cccc(Cl)c3)C(=O)C2)cc1 | 939 s
CCc1nnc2cc(N3CCN(Cc4ccc(OC(C)C)cc4)CC3)cnn12 | 545 s
CCc1nn2c(CNC(=O)c3ccsc3)c(-c3ccccc3)nc2s1 | 854 s
O=c1n(Cc2ccccc2)nc2n1CCN(S(=O)(=O)c1cnc[nH]1)CC2 | 646 s
COc1cccc2c1cc1c(=O)n(CC(=O)N3CCN(c4ccccn4)CC3)nc(C)n12 | 591 s
CC(C)CC(=O)Nc1cc2c(cc1S(=O)(=O)c1ccc(F)cc1)n(C)c(=O)n2C | 847 s
C=CCNC(=O)c1cn(-c2cc(-c3nc(C4CC4)no3)ccn2)cn1 | 800 s
O=C(c1ccc(OCCCc2cnc[nH]2)cc1)C1CC1 | 680 s
Cc1ccc(CNC(=O)C2(c3ccc(NS(C)(=O)=O)cc3)CCCCC2)cc1 | 943 s
CC1=C(c2cccc(Cl)c2)S(=O)(=O)N=C1N1CCCN(C(=O)C(C)C)CC1 | 786 s
CSc1ccccc1CN1CCC(CNC(=O)C2(c3ccccc3)CCOCC2)CC1 | 588 s

Compound | RP-LC retention time
Cc1ccc(NC(=O)c2csc(-c3cn(C)c4ncccc34)n2)c(F)c1 | 1160 s
CCCS(=O)(=O)c1nc2ccc(NS(=O)(=O)c3ccc(F)c(F)c3)cc2s1 | 973 s
COc1ccc(OC)c(Nc2c(-c3ccc4c(c3)OCO4)nc3cnccn23)c1 | 829 s
O=C(NCC(=O)N1CCCc2ccccc21)c1ccccc1F | 831 s
COC(=O)c1cc2c(=O)n(Cc3ccccc3Cl)ccc2nc1C | 902 s
O=C(Cn1c(=O)c(S(=O)(=O)c2ccccc2)cc2ccccc21)NCc1ccco1 | 810 s
CCN(CC)S(=O)(=O)c1ccc2nc(NCc3ccc4c(c3)OCO4)cnc2c1 | 964 s
CC(C)Cc1csc(-c2csc(S(=O)(=O)NC3CCCCC3)c2)n1 | 1320 s
COC(=O)c1ccc(NC(=O)C(=O)NCC2(c3ccc(F)cc3)CC2)cc1 | 834 s
O=C(c1cccc(N2CCCS2(=O)=O)c1)N1CCN(c2ccccn2)CC1 | 578 s
O=S(=O)(c1ccccc1Cl)N1CC(F)(F)C[C@H]1CN1CCc2ccccc2C1 | 760 s
O=c1oc2c(-c3ccc([N+](=O)[O-])cc3)cc(O)cc2s1 | 829 s
Cc1nc2c(sc3nc(-c4ccccc4)ccc32)c(=O)n1CC(=O)Nc1ccc(C(C)C)cc1 | 1200 s
CCc1ccc(N2CC(c3noc(-c4cnccn4)n3)CC2=O)cc1 (stereo unspecified) | 760 s
CCN1C=C(C(=O)OCc2cccc(Cl)c2)C(C)=NS1(=O)=O | 1050 s
Cc1cc(C)c2c(n1)SCC(=O)N2CC(=O)NCCN(C)C1CCCCC1 | 585 s
O=C(Cc1csc2nc(-c3ccccc3)cn12)N1CCc2ccccc2C1 | 826 s
O=C(c1ccc(-c2cccnc2)nc1)N1CCN(c2ccc(F)cc2)CC1 | 671 s
CCCCCOC(=O)Nc1nc(=O)n([C@@H]2O[C@H](C)[C@H](O)C2O)cc1F (stereo partly specified) | 682 s
Cc1nc2cccnc2n1C1CCN(C(=O)C2CCCCC2)C1 (stereo unspecified) | 591 s
Cc1csc(-c2cc(S(=O)(=O)NC3CC3)cn2CC(=O)N2CCCCC2)n1 | 841 s
NC(=O)C1CCN(Cc2cc(-c3ccc(F)cc3)n[nH]2)CC1 | 571 s
